Measured values from the kinase profiling compilation of Christmann-Franck et al. (2016).

What was measured:
Assay in all cases: Caliper, Mobility shift assay off-chip
HCK (human) = HCK (human) (UniProt P08631)
TSSK1B (human) = TSSK1B (human) (UniProt Q9BXA7)
CAMK4 (human) = CAMK4 (human) (UniProt Q16566)
FGFR2 (human) = FGFR2 (human) (UniProt P21802)
SYK (human) = SYK (human) (UniProt P43405)
PRKCB1 (human) = PRKCB1 (human) (UniProt P05771)
GSK3B (human) = GSK3B (human) (UniProt P49841)
MAP4K4 (human) = MAP4K4 (human) (UniProt O95819)
RPS6KA1 KD1 KD2 (human) = RPS6KA1 KD1 KD2 (human) (UniProt Q15418)
Sequence of RPS6KA1 KD1 KD2 (human) (Q15418 whole entry, looked up): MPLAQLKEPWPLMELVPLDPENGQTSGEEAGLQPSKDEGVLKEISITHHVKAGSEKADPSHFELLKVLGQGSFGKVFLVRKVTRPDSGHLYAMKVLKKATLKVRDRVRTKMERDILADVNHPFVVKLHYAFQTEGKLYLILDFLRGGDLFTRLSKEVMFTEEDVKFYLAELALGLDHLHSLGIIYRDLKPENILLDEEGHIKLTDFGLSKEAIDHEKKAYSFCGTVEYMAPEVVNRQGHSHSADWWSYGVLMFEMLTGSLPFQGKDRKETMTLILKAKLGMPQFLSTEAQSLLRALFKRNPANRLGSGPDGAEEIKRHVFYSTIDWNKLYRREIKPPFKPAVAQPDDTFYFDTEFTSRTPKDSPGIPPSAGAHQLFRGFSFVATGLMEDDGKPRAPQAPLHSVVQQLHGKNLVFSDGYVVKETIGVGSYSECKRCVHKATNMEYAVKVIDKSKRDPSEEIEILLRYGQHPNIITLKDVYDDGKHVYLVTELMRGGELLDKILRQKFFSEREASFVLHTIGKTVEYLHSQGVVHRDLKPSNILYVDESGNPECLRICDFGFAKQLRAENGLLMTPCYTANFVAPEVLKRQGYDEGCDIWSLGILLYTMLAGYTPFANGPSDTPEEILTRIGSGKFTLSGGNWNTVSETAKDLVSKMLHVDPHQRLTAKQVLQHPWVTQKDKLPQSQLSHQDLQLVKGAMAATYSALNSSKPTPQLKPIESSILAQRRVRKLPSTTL

CHEK1 (human) = CHEK1 (human) (UniProt O14757)
RPS6KA3 KD1 KD2 (human) = RPS6KA3 KD1 KD2 (human) (UniProt P51812)
[1] = tested on: ABL1 (human), P00519 [T315I]
INSR (human) = INSR (human) (UniProt P06213)
IRAK4 (human) = IRAK4 (human) (UniProt Q9NWZ3)
Sequence of IRAK4 (human) (Q9NWZ3 whole entry, looked up): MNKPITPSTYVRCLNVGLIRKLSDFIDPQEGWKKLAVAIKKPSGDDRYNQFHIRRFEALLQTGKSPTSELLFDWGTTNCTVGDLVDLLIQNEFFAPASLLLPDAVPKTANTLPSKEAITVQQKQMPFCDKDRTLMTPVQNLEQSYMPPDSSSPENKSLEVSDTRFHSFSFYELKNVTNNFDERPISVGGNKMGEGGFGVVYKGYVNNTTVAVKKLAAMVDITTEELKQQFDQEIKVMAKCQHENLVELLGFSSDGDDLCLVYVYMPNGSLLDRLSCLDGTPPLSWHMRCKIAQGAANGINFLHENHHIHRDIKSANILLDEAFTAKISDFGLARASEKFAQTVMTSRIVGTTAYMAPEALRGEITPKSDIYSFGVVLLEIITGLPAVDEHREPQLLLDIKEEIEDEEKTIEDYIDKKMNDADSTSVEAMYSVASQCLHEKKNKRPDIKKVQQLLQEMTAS

PRKACA (human) = PRKACA (human) (UniProt P17612)
IKBKB (human) = IKBKB (human) (UniProt O14920)
PAK2 (human) = PAK2 (human) (UniProt Q13177)
Sequence of PAK2 (human) (Q13177 whole entry, looked up): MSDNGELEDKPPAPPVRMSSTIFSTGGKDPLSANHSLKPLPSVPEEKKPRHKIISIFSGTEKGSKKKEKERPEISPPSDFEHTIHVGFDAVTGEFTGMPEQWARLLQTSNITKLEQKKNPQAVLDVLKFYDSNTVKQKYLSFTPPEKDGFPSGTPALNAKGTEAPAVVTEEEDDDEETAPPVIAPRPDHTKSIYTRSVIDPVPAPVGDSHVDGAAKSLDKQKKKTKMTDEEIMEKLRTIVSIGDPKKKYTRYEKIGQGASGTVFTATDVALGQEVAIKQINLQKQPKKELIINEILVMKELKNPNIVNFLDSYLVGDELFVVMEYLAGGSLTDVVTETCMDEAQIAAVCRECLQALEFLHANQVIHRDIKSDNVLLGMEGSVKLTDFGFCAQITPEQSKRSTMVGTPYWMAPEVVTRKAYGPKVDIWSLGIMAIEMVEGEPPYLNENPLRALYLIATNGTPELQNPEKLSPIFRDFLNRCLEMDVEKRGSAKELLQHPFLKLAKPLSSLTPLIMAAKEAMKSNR

KDR (human) = KDR (human) (UniProt P35968)
NEK2 (human) = NEK2 (human) (UniProt P51955)
AURKB (human) = AURKB (human) (UniProt Q96GD4)
Sequence of AURKB (human) (Q96GD4 whole entry, looked up): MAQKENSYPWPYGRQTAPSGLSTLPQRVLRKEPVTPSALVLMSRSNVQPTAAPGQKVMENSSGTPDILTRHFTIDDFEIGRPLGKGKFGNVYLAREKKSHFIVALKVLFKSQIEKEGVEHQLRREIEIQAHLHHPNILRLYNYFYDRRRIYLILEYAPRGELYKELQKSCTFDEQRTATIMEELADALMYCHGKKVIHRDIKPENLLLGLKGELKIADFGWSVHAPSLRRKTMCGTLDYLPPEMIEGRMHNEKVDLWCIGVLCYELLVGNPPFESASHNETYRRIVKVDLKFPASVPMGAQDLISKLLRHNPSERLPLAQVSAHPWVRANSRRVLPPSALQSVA

LCK (human) = LCK (human) (UniProt P06239)
RAF1 (human) = RAF1 (human) (UniProt P04049)
Sequence of RAF1 (human) (P04049 whole entry, looked up): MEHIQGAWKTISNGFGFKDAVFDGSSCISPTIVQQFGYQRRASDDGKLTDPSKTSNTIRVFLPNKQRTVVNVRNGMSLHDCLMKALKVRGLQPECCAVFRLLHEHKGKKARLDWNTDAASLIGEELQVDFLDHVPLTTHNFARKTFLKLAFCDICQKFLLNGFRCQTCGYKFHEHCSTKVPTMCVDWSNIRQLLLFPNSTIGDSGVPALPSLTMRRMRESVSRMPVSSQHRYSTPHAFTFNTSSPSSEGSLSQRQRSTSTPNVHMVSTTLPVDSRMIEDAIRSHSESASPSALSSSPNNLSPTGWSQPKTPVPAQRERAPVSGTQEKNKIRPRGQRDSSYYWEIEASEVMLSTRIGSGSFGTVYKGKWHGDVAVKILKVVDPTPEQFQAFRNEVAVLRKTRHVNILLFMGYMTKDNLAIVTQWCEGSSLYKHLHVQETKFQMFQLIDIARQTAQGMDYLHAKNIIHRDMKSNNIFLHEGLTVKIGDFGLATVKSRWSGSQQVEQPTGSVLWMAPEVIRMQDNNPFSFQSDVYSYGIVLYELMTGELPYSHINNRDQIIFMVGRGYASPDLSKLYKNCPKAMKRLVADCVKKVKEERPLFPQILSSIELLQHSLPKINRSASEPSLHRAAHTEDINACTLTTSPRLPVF

PRKCE (human) = PRKCE (human) (UniProt Q02156)
[2] = tested on: ABL1 (human), P00519 [H396P]
PRKD2 (human) = PRKD2 (human) (UniProt Q9BZL6)
BRSK2 (human) = BRSK2 (human) (UniProt Q8IWQ3)
PDGFRA (human) = PDGFRA (human) (UniProt P16234)
TSSK2 (human) = TSSK2 (human) (UniProt Q96PF2)
SRC (human) = SRC (human) (UniProt P12931)
[3] = tested on: FGFR2 (human), P21802 [N549H]
ROCK2 (human) = ROCK2 (human) (UniProt O75116)
Sequence of ROCK2 (human) (O75116 whole entry, looked up): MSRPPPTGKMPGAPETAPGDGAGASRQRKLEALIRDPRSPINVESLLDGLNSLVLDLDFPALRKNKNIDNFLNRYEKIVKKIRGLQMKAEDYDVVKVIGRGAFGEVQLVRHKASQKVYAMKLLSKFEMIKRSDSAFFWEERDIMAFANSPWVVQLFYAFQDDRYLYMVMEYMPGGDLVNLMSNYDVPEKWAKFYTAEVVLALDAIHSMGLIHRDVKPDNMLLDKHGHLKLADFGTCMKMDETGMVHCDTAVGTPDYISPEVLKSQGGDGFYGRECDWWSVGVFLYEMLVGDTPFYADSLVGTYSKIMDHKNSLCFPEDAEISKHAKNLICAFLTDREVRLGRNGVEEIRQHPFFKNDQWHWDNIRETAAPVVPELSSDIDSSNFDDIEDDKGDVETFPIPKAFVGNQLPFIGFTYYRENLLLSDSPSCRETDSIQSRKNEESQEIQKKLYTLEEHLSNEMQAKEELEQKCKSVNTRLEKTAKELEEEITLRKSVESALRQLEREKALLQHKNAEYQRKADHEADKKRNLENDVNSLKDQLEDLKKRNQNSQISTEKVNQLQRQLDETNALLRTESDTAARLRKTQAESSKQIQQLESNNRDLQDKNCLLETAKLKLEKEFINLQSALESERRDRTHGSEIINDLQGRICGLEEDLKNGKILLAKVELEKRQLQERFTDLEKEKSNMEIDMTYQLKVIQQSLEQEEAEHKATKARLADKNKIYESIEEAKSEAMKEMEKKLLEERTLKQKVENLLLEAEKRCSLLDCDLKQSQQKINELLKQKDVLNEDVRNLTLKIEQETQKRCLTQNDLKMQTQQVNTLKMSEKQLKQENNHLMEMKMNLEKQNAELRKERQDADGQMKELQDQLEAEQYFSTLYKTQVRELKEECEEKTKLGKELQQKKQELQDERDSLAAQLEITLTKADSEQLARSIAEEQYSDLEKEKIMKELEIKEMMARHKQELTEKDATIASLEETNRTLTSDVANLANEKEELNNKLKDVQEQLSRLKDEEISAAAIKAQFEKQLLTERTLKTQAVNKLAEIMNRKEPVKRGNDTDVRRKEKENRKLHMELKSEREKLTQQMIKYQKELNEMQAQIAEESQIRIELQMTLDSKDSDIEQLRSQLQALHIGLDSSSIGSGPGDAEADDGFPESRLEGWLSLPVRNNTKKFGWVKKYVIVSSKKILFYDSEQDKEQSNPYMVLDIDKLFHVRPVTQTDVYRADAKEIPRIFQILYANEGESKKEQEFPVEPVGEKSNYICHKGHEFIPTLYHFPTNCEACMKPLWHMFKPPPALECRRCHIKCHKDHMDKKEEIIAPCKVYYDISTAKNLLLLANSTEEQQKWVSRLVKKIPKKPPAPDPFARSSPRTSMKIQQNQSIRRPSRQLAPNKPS

DYRK1A (human) = DYRK1A (human) (UniProt Q13627)
PIM1 (human) = PIM1 (human) (UniProt P11309)
Sequence of PIM1 (human) (P11309 whole entry, looked up): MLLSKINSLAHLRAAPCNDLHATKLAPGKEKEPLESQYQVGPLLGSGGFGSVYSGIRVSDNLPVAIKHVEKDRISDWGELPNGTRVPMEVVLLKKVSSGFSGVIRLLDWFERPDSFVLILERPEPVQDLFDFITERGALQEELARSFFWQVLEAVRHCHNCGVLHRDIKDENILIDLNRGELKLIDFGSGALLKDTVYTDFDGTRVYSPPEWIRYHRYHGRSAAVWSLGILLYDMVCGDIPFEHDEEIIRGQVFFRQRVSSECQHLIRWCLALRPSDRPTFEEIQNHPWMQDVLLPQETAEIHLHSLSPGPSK

MAPK11 (human) = MAPK11 (human) (UniProt Q15759)
Sequence of MAPK11 (human) (Q15759 whole entry, looked up): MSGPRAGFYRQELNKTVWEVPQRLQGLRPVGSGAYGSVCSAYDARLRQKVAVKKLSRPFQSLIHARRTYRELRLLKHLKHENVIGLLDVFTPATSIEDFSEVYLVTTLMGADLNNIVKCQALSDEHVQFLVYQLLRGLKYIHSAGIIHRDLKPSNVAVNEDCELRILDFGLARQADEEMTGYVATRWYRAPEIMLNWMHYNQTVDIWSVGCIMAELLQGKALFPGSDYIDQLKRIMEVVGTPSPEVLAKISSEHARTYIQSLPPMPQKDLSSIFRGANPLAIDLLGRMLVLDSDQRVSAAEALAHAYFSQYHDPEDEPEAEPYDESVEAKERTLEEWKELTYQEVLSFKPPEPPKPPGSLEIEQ

Cn1cc(-c2cnc3ccc4ccc(CS(=O)(=O)NCC5CCCCN5)cc4c(=O)c3c2)cn1 (stereo unspecified)
inhibition (HCK (human); compound 0.1 µM): -2.1% | inhibition (TSSK1B (human); compound 0.1 µM): -2.7% | inhibition (CAMK4 (human); compound 0.1 µM): -1.9% | inhibition (CAMK4 (human); compound 1.0 µM): -4.2% | inhibition (FGFR2 (human); compound 0.1 µM): 3% | inhibition (SYK (human); compound 0.1 µM): 13.6% | inhibition (SYK (human); compound 1.0 µM): 0.3% | inhibition (PRKCB1 (human); compound 0.1 µM): -20.8% | inhibition (PRKCB1 (human); compound 1.0 µM): -18.2% | inhibition (GSK3B (human); compound 1.0 µM): 2% | inhibition (MAP4K4 (human); compound 0.1 µM): 4.1% | inhibition (MAP4K4 (human); compound 1.0 µM): 15.7% | inhibition (RPS6KA1 KD1 KD2 (human); compound 0.1 µM): 8.6% | inhibition (RPS6KA1 KD1 KD2 (human); compound 1.0 µM): 0% | inhibition (CHEK1 (human); compound 0.1 µM): 1.1% | inhibition (CHEK1 (human); compound 1.0 µM): 0.4% | inhibition (RPS6KA3 KD1 KD2 (human); compound 0.1 µM): 0.2% | inhibition (RPS6KA3 KD1 KD2 (human); compound 1.0 µM): -6% | inhibition ([1]; compound 0.1 µM): 3.3% | inhibition (INSR (human); compound 0.1 µM): -128% | inhibition (INSR (human); compound 1.0 µM): -2% | inhibition (IRAK4 (human); compound 0.1 µM): 31.2% | inhibition (IRAK4 (human); compound 1.0 µM): 40.2% | inhibition (PRKACA (human); compound 0.1 µM): -1.4% | inhibition (PRKACA (human); compound 1.0 µM): 0.3% | inhibition (IKBKB (human); compound 0.1 µM): 1.9% | inhibition (PAK2 (human); compound 0.1 µM): -7.9% | inhibition (PAK2 (human); compound 1.0 µM): 0.9% | inhibition (KDR (human); compound 0.1 µM): -5.2% | inhibition (KDR (human); compound 1.0 µM): 41.8% | inhibition (NEK2 (human); compound 0.1 µM): 2.7% | inhibition (NEK2 (human); compound 1.0 µM): -2.2% | inhibition (AURKB (human); compound 0.1 µM): 34.7% | inhibition (LCK (human); compound 0.1 µM): 18.4% | inhibition (LCK (human); compound 1.0 µM): -1.2% | inhibition (RAF1 (human); compound 0.1 µM): 5.4% | inhibition (RAF1 (human); compound 1.0 µM): -0.8% | inhibition (PRKCE (human); compound 0.1 µM): -9.1% | inhibition (PRKCE (human); compound 1.0 µM): -5.1% | inhibition ([2]; compound 0.1 µM): 14.9% | inhibition (PRKD2 (human); compound 0.1 µM): -3.8% | inhibition (PRKD2 (human); compound 1.0 µM): 15% | inhibition (BRSK2 (human); compound 0.1 µM): -1.3% | inhibition (BRSK2 (human); compound 1.0 µM): -9.5% | inhibition (PDGFRA (human); compound 0.1 µM): 17.5% | inhibition (TSSK2 (human); compound 0.1 µM): 0.7% | inhibition (SRC (human); compound 0.1 µM): 3.2% | inhibition (SRC (human); compound 1.0 µM): 2.1% | inhibition ([3]; compound 0.1 µM): -2.9% | inhibition (ROCK2 (human); compound 0.1 µM): 3.6% | inhibition (ROCK2 (human); compound 1.0 µM): -1.6% | inhibition (DYRK1A (human); compound 0.1 µM): 2.3% | inhibition (DYRK1A (human); compound 1.0 µM): 2.1% | inhibition (PIM1 (human); compound 0.1 µM): -4.7% | inhibition (PIM1 (human); compound 1.0 µM): -8.3% | inhibition (MAPK11 (human); compound 0.1 µM): -1.4%

Cn1cc(-c2cnc3ccc4ccc(CS(N)(=O)=O)cc4c(=O)c3c2)cn1
inhibition (HCK (human); compound 0.1 µM): -59.1% | inhibition (HCK (human); compound 1.0 µM): -1.6% | inhibition (TSSK1B (human); compound 0.1 µM): -0.9% | inhibition (TSSK1B (human); compound 1.0 µM): 1% | inhibition (CAMK4 (human); compound 0.1 µM): -1.6% | inhibition (CAMK4 (human); compound 1.0 µM): -6.4% | inhibition (FGFR2 (human); compound 0.1 µM): 21.8% | inhibition (FGFR2 (human); compound 1.0 µM): 47.9% | inhibition (SYK (human); compound 0.1 µM): 1.9% | inhibition (SYK (human); compound 1.0 µM): 7.6% | inhibition (PRKCB1 (human); compound 0.1 µM): -9.3% | inhibition (GSK3B (human); compound 0.1 µM): -2.7% | inhibition (GSK3B (human); compound 1.0 µM): 9.3% | inhibition (MAP4K4 (human); compound 0.1 µM): 7.1% | inhibition (MAP4K4 (human); compound 1.0 µM): 1.8% | inhibition (RPS6KA1 KD1 KD2 (human); compound 0.1 µM): -12.4% | inhibition (RPS6KA1 KD1 KD2 (human); compound 1.0 µM): -3% | inhibition (CHEK1 (human); compound 0.1 µM): -7.9% | inhibition (CHEK1 (human); compound 1.0 µM): 3.1% | inhibition (RPS6KA3 KD1 KD2 (human); compound 0.1 µM): 1.2% | inhibition (RPS6KA3 KD1 KD2 (human); compound 1.0 µM): -1.7% | inhibition ([1]; compound 0.1 µM): 1.4% | inhibition ([1]; compound 1.0 µM): 12.7% | inhibition (INSR (human); compound 0.1 µM): 12% | inhibition (INSR (human); compound 1.0 µM): 6.4% | inhibition (IRAK4 (human); compound 0.1 µM): 6% | inhibition (IRAK4 (human); compound 1.0 µM): -8.2% | inhibition (PRKACA (human); compound 0.1 µM): -5.5% | inhibition (PRKACA (human); compound 1.0 µM): -1.1% | inhibition (IKBKB (human); compound 0.1 µM): -12% | inhibition (IKBKB (human); compound 1.0 µM): 4.2% | inhibition (PAK2 (human); compound 0.1 µM): 1.7% | inhibition (PAK2 (human); compound 1.0 µM): 0.8% | inhibition (KDR (human); compound 0.1 µM): 32.6% | inhibition (KDR (human); compound 1.0 µM): 64% | inhibition (NEK2 (human); compound 0.1 µM): -1.5% | inhibition (NEK2 (human); compound 1.0 µM): -7.5% | inhibition (AURKB (human); compound 0.1 µM): 41.7% | inhibition (AURKB (human); compound 1.0 µM): 75% | inhibition (LCK (human); compound 0.1 µM): 2.4% | inhibition (LCK (human); compound 1.0 µM): -1.7% | inhibition (RAF1 (human); compound 0.1 µM): 6.2% | inhibition (RAF1 (human); compound 1.0 µM): -3.8% | inhibition (PRKCE (human); compound 0.1 µM): -4.6% | inhibition (PRKCE (human); compound 1.0 µM): 5.9% | inhibition ([2]; compound 0.1 µM): -0.9% | inhibition ([2]; compound 1.0 µM): 9.4% | inhibition (PRKD2 (human); compound 0.1 µM): 7.3% | inhibition (PRKD2 (human); compound 1.0 µM): -2.6% | inhibition (PDGFRA (human); compound 0.1 µM): -19.1% | inhibition (PDGFRA (human); compound 1.0 µM): 15.5% | inhibition (TSSK2 (human); compound 0.1 µM): -37% | inhibition (TSSK2 (human); compound 1.0 µM): 10.5% | inhibition (SRC (human); compound 0.1 µM): 0.2% | inhibition (SRC (human); compound 1.0 µM): 1.3% | inhibition ([3]; compound 0.1 µM): 15.5% | inhibition ([3]; compound 1.0 µM): 40.5% | inhibition (ROCK2 (human); compound 0.1 µM): 3% | inhibition (ROCK2 (human); compound 1.0 µM): 2% | inhibition (DYRK1A (human); compound 0.1 µM): 6.2% | inhibition (DYRK1A (human); compound 1.0 µM): 32.9% | inhibition (PIM1 (human); compound 0.1 µM): -4.1% | inhibition (PIM1 (human); compound 1.0 µM): 3.7% | inhibition (MAPK11 (human); compound 0.1 µM): -1.8% | inhibition (MAPK11 (human); compound 1.0 µM): -4.1%
